From patent US4603209A, “Fluorescent indicator dyes for calcium ions” (priority 1984, dated 1986)
Where two headings read alike, the source gives them in different places.

Experiments:
[1] = cited from earlier work
[2] = cited from earlier work; remark: listed apart in the source
[3] = reference 26; cited from earlier work
[4] = reference 26; cited from earlier work; remark: listed apart in the source
[5] = Ca2+ titration of dye fluorescence in Ca-EGTA buffers; format: binding; details: for Kd: read-out: Apparent Kd for Ca^2+
Experimental: The excitation bandwidth was 1.9 nm, the emission was collected at 510 nm with 4.6 nm bandwidth, and the spectra were automatically corrected for excitation lamp and monochromator characteristics using a rhodamine B quantum counter. The titration was done starting with 5 ml of 100 mM KCl, 10 mM KMOPS, 10 mM K2 H2 EGTA, 1 microM fura-2, adjusting the pH to 7.20, recording the spectrum, then discarding 0.5 ml of this solution and replacing with 0.5 ml of 100 mM KCl, 10 mM KMOPS, 10 mM K2 CaEGTA, 1 microM fura-2, readjusting the pH to 7.20, and recording the spectrum which was then in 9 mM K2 H2 EGTA and 1 mM K2 CaEGTA. Subsequent iterations to reach n mM CaEGTA, (10-n) mM EGTA, n=2-10, were done by discarding 5.0/(11-n) ml and replacing with equal volumes of the 10 mM K2 CaEGTA -1 microM fura-2 stock. After n=10 had been reached to give a free Ca^2+ between 10^-4 and 10^-5 M, addition of 1 mM CaCl2 had no further effect on the spectrum. Equality of Ca and EGTA contents in the K2 CaEGTA solution was insured by titration of K2 H2 EGTA with CaCl2 to the potentiometric endpoint measured with a Ca^2+ -selective electrode. EGTA was Fluka Chemical "puriss" grade.
The dye, 6 microM, was titrated in 115 mM KCl, 20 mM NaCl, 10 mM MOPS, 1.115 mM MgCl2, 1.115 mM K2 H2 EGTA, KOH to pH 7.050±0.004, 37° C., to which small aliquots of K2 CaEGTA were added from a micrometer syringe to raise free Ca^2+ to the values labeling each curve, in units of nM unless otherwise specified. Excitation was at 355 nm, and both excitation and emission were set to 5 nm bandwidth. These spectra are not corrected for the emission sensitivity characteristics of the Perkin Elmer MPF-44; in particular the notch at 465 nm is an instrumental artifact. Corrected emission spectra show the low-Ca 485 nm peak to be of very similar amplitude to the high-Ca 404 nm peak when excitation is at 355-356 nm.
Free [Ca^2+ ] levels were controlled by Ca-EGTA buffers assuming apparent dissociation constants for Ca-EGTA of 380 nM at pH 7.00 in 0.1M KCl, 20° C.; 151 nM at pH 7.20 in 0.1M KCl, 20° C.; 214 nM at pH 7.05 in 130 mM KCl, 20 mM NaCl at 37° C.; and 490 nM at pH 7.02 in 225 mM KCl, 25 mM NaCl at 18° C. The first three apparent dissociation constants were calculated from the tables of Martell & Smith (see reference 11) as discussed in referencess 1 and 12. The last value was freshly determined in this study because no appropriate absolute constants were available at the higher ionic strength, and existing estimates in the biological literature (see references 13-17) vary by an unacceptably large range, >0.5 log unit. For this determination we chose the classic and reliable method of pH titration in the presence and absence of excess metal ion (see references 18). Details are included in the METHODS OF SYNTHESIS section, supra.
Dissociation constants for the new indicators disclosed herein, as exemplified by chelators stil-1, stil-2, indo-1, fura-1, fura-2 and fura-3 (see Table I, infra), are in the range 100-300 nM at ionic strengths near 0.1 to 0.15. Such values are close to the dissociation constant (110 nM) of the parent compound BAPTA (see reference 6), showing that the substituents that make up the rest of the chromophores are only slightly electron-withdrawing. […] A considerable decrease in Ca^2+ binding strength is observed, to an apparent dissociation constant of 760 nM. Such a strong dependence on ionic strength is not surprising for the reaction of a tetravalent anion with a divalent cation.
where Kd is the effective dissociation constant. The fluorescence ratio R is the ratio [formula] Solving for [Ca^2+ ] yields the calibration equation: [formula] Note that FA1 /FA2 is simply the limiting value that R can have at zero [Ca^2+ ] and so may be considered Rmin, while FB1 /FB2 is the analogous limiting Rmax that the ratio has at saturating [Ca^2+ ]. […]

[6] = Zn2+ titration of dye fluorescence in Zn-EGTA buffer, Hill plots; format: binding; details: for pKZn / Kd: 120 mM KCl, pH 7.12, room temperature; for Kd: read-out: dissociation constant for zinc
Experimental: Heavy metal binding constants were measured as follows. Affinities of stil-1 and fura-2 for Zn^2+ were measured by titrating 1-2 microM dye in 120 mM KCl, 5 mM K2 H2 EGTA, 10 mM MOPS, 5 mM Tris, with 1M ZnCl2 dispensed from a micrometer syringe. […] (see reference 11).
Binding of fura-2 to some of the physiologically more important heavy divalent metals was also briefly examined. Both stil-1 and fura-2 bind zinc with dissociation constants around 1.6-2 nM (pKZn 8.6-8.8). […] Curiously Zn^2+ shifts the fura-2 spectrum the same way that Ca^2+ does, whereas Zn^2+ quenches quin2 and therefore acts oppositely to Ca^2+. Fura-2 is also better than quin2 in rejecting Mn^2+, the Mn^2+ :Ca^2+ preferences being 42-fold and 510-fold respectively (see reference 26). […] A more precise estimate was prevented by experimental scatter, which may reflect more complicated stoichiometry than 1:1 or imperfectly anaerobic conditions. Both Mn^2+ and Fe^2+ quench fura-2 as expected for metals with many unpaired electrons. For comparison, EGTA prefers Zn^2+, Mn^2+, and Fe^2+ to Ca^2+, by factors of ca. 50, ca. 20, and ca. 8-fold respectively (see reference 11).

[7] = Mg2+ titration of dye excitation spectrum in Mg-EGTA buffers; format: binding; details: 0.1-0.15M ionic strength, read-out: Mg^2+ dissociation constant
Experimental: An excitation spectrum was recorded of 2 microM fura-2 in 2.5 ml 32 mM KCl, 1 mM EGTA, 10 mM MOPS, adjusted with KOH to pH 7.18 while thermostatted at 20° C. Then 25 microliters of this solution was discarded and replaced by 25 microliters of a solution containing 2 microM fura-2, 104.8 mM MgCl2, 5.8 mM EGTA, 10 mM MOPS, adjusted with KOH to pH 7.18. Since both stocks had 1 mM free EGTA but the latter had 100 mM free Mg, the 99:1 v/v composite went to 1.0 mM free Mg^2+. Further iterations attained 2, 5, 10, and 20 mM free Mg^2+ by successively discarding 25.25, 76.53, 131.6, and 277.8 microliters of the mixture and replacing each with an equal volume of the high-Mg stock. Emission was collected at 510 nm, 4.6 nm bandpass, and excitation 0.9 nm bandpass.
Free [Mg^2+ ] was likewise controlled by Mg-EGTA buffers assuming an apparent dissociation constant for Mg-EGTA of 21 mM at pH 7.18 in 130 mM KCl at 20°, 8.96 mM at pH 7.05 in 130 mM KCl, 20 mM NaCl at 37°, and 99 mM at pH 7.02 in 225 mM KCl, 25 mM NaCl at 18°. Again, the last value was freshly determined in this study.
Binding constants for competing cations were most thoroughly explored for fura-2. […] Therefore fura-2 binds Mg^2+ less strongly than does quin2, whose Mg^2+ dissociation constants are about 1 mM and 2 mM respectively at 37° and ca. 22° (see references 6 and 7). […]

[8] = Direct competition between Mn2+ and Ca2+, quenching of dye fluorescence; format: binding; details: 100 mM KCl, 10 mM KMOPS, pH 7.2, room temperature
Experimental: (§1) Since Mn^2+ and Fe^2+ quench fura-2, the affinities for these ions relative to Ca^2+ could be assessed by direct competition between the metal ions each in stoichiometric excess. […] Fluorescences of 0.5 microM fura-2 at room temperature were recorded in solutions containing 100 mM KCl, 10 mM KMOPS, pH 7.2. One series also contained 0, 0.1, or 1 mM MnSO4 and 0, 1.1, 2.2, 4.4, or 8.8 mM CaCl2; another series had 2 mM CaCl2 and 0, 0.1, 0.2, 0.5, 1, 2 mM Fe(NH4)2 (SO4)2; and a third series with 0.2 mM Fe(NH4)2 (SO4)2 and 0, 0.2, 0.4, 0.8, 2, 4, and 8 mM CaCl2. Measurements with Fe(II) were made in a cuvet sealed by a septum and continually bubbled with nitrogen; the solutions stayed clear and nearly colorless until the septum was removed after the end of the experiment, whereupon deposition of yellow Fe(OH)3 followed rapidly.
(§2) Binding of fura-2 to some of the physiologically more important heavy divalent metals was also briefly examined. Both stil-1 and fura-2 bind zinc with dissociation constants around 1.6-2 nM (pKZn 8.6-8.8). […] Curiously Zn^2+ shifts the fura-2 spectrum the same way that Ca^2+ does, whereas Zn^2+ quenches quin2 and therefore acts oppositely to Ca^2+. Fura-2 is also better than quin2 in rejecting Mn^2+, the Mn^2+ :Ca^2+ preferences being 42-fold and 510-fold respectively (see reference 26). […]

[9] = Direct competition between Fe2+ and Ca2+, quenching of dye fluorescence; format: binding; details: 100 mM KCl, 10 mM KMOPS, pH 7.2, under nitrogen
Experimental: as §1, §2

[10] = 115 mM KCl, 20 mM NaCl, 10 mM KMOPS, pH 7.05, 1 mM free Mg^2+, 37° C.

## COc1cc(N(CC(=O)O)CC(=O)O)c2nc(COc3cc(C)ccc3N(CC(=O)O)CC(=O)O)ccc2c1 [quin-2]
[1]; 100 mM KCl, 20° C., pH 7.1-7.2, data taken from reference 4, read-out: Apparent Kd for Ca^2+
  Kd: 0.08 µM
[2]; 37°, references 6 and 7, read-out: Mg^2+ dissociation constant
  Kd: ~1000 µM
[2]; background statement, read-out: dissociation constant for Mg^2+
  Kd: 1000 to 2000 µM
[2]; ca. 22°, references 6 and 7, read-out: Mg^2+ dissociation constant
  Kd: ~2000 µM
[3]
  Zn^2+:Ca^2+ preference: 3.5 orders of magnitude
[4]
  Mn^2+:Ca^2+ preference: 510 fold

## O=C(O)CN(CC(=O)O)c1ccccc1OCCOc1ccccc1N(CC(=O)O)CC(=O)O [BAPTA, 1,2-bis(2-aminophenoxy)ethane N,N,N',N'-tetraacetic acid]
[1]; parent compound, reference 6, read-out: dissociation constant (Ca^2+)
  Kd: 0.11 µM
[1]; reference 6, read-out: Kd (Ca^2+)
  Kd: 0.1 µM

## Cc1ccc(N(CC(=O)O)CC(=O)O)c(OCCOc2cc(-c3cc4ccc(C(=O)O)cc4[nH]3)ccc2N(CC(=O)O)CC(=O)O)c1 [indo-1, 1-(2-amino-5-[6-carboxyindolyl-2]-phenoxy)-2-(2'-amino-5'-methylphenoxy)ethane-N,N,N',N'-tetraacetic acid]
[5]; FIG. 4 data, emission 400 nm / 490 nm, 115 mM KCl, 20 mM NaCl, pH 7.050, 37° C.
  Kd from ratio calibration equation 5: 0.25 µM

## Cc1ccc(N(CC(=O)O)CC(=O)O)c(OCCOc2cc3cc(-c4ccc(C#N)cc4)oc3cc2N(CC(=O)O)CC(=O)O)c1 [fura-3, 1-(2-(4-cyanophenyl)-6-aminobenzofuran-5-oxy)-2-(2'-amino-5'-methylphenoxy)ethane-N,N,N',N'-tetraacetic acid]
[5]; [10]
  Kd: 0.14 µM

## Cc1ccc(N(CC(=O)O)CC(=O)O)c(OCCOc2cc(/C=C/c3ccc(C(=O)O)cc3)ccc2N(CC(=O)O)CC(=O)O)c1 [stil-1]
[5]; 100 mM KCl, 20° C., pH 7.1-7.2
  Kd: 0.132 µM
[5]; [10]
  Kd: 0.2 µM
[6]
  Zn^2+:Ca^2+ preference: two orders of magnitude
  pKZn: 8.6-8.8
  Kd: 0.0016 to 0.002 µM

## Cc1ccc(N(CC(=O)O)CC(=O)O)c(OCCOc2cc3cc(-c4ncc(C(=O)O)o4)oc3cc2N(CC(=O)O)CC(=O)O)c1 [fura-2, 1-(2-(5'-carboxyoxazol-2'-yl)-6-aminobenzofuran-5-oxy)-2-(2'-amino-5'-methylphenoxy)ethane-N,N,N',N'-tetraacetic acid]
[7]; 20°
  Kd: ~9800 µM
[7]; 37° C.
  Kd: ~5600 µM
[6]
  Zn^2+:Ca^2+ preference: two orders of magnitude
  pKZn: 8.6-8.8
  Kd: 0.0016 to 0.002 µM
[8]
  Mn^2+:Ca^2+ preference: 42 fold
[9]
  Fe^2+ binding strength relative to Ca^2+: between three and ten time

## Cc1ccc(N(CC(=O)O)CC(=O)O)c(OCCOc2cc(/C=C/c3ccc(S(=O)(=O)N(C)C)cc3)ccc2N(CC(=O)O)CC(=O)O)c1 [stil-2]
[5]; 100 mM KCl, 37° C., pH 7.08, cis-trans mixture as saponified
  Kd: 0.224 µM

## Cc1ccc(N(CC(=O)O)CC(=O)O)c(OCCOc2cc3cc(-c4ccc(C(=O)O)cc4)oc3cc2N(CC(=O)O)CC(=O)O)c1 [fura-1, 1-(2-(4-carboxyphenyl)-6-amino-benzofuran-5-oxy)-2-(2'-amino-5'-methylphenoxy)ethane-N,N,N',N'-tetraacetic acid]
[5]; [10]
  Kd: 0.107 µM
